Measurements taken from patent US8168659B2, “1, 5-diphenyl-3-benzylamino-1, 5-dihydropyrrolidin-2-one as CB1 receptor modulators” (Eli Lilly and Company, priority 2006, dated 2012).
Structures can show the parent of a compound that is named as a salt. Where two headings read alike, the source gives them in different places.

Assays:
Human CB2 [1] = target: T1, Human CB2 (Homo sapiens, UniProt P34972); test: Antibody-capture SPA GTP-γ-35S binding, antagonist/inverse agonist, Sf9 cell membranes; assay type: biochemical
T1 construct: purchased Applied Cell Sciences, Gaithersburg, Md; PerkinElmer Life Sciences, Boston, Mass; host or cells: Sf9 insect cells (recombinant expression), membranes
T1 sequence (P34972 whole entry): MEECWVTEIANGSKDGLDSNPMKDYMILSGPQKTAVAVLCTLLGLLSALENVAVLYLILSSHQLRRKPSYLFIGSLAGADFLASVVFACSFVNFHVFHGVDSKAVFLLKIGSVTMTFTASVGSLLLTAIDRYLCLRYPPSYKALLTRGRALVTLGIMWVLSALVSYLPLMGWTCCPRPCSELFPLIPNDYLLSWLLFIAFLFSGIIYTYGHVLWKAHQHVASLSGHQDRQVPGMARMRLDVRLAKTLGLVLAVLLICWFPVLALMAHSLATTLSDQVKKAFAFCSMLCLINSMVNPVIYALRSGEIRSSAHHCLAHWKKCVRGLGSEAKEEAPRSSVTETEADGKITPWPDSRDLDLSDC
Procedure: (§1) Antibody-Capture SPA GTP-γ-^35S Binding
(§2) Test exemplified compounds. Measure GTP-γ^35S binding in a 96 well format using a modified antibody capture technique previously described (DeLapp et al. 1999). Briefly incubate, CHO or Sf9 cell membranes expressing CB1 or CB2, respectively (Applied Cell Sciences, Gaithersburg, Md.; PerkinElmer Life Sciences, Boston, Mass.); prepare as previously described (DeLapp et al., 1999), exemplified compounds and 500 μM GTP-γ-^35S (PerkinElmer Life Sciences, Boston, Mass.) for 30 minutes (incubate all at room temperature) in GTP-binding assay buffer (20 mM Hepes, 100 mM NaCl, 5 mM MgCl2, pH 7.4). Perform antagonist dose responses in the presence of a saturating dose of full agonist (methanandamide). Add a mixture containing 0.27% Nonidet P40 detergent (Roche, Indianapolis, Ind.), anti-Gi antibody (final dilution of 1:300; Covance, Princeton, N.J.), and 1.25 mg anti-rabbit antibody scintillation proximity assay beads (GE Healthcare, Piscataway, N.J.) and seal the plates and incubate for an additional 3 hours. Centrifuge the plates at 700×g for 10 minutes using a Beckman GS-6R centrifuge and count for 1 minute per well using a Wallac MicroBeta TriLux scintillation counter (PerkinElmer, Boston, Mass.).
(§3) To analyze data, first subtract background from all wells. Determine percent agonist efficacy by normalizing agonist/inverse agonist dose response data to a full agonist (methanandamide) response. Calculating antagonist percent inhibition data by normalizing to results generated with a saturating concentration of methanandamide. Analyze the data using a 4-parameter logistic reduced fit with Activity Base and XLFit3 (IDBS, Emeryville, Calif.). Determine Kb values using a modification of the Cheng-Prusoff relationship: Kb=IC50/(1+[agonist]/EC50) where IC50 is determined from a four parameter fit of displacement curves, [agonist]=EC50 of full agonist, and EC50 is determined from a four parameter fit of a full agonist concentration response curve (Cheng and Prusoff 1973). Calculate mean Kb values as a mean of at least three independent determinations±standard error of the mean (SEM).

hCB1 [2] = target: T2, hCB1 (Homo sapiens, UniProt P21554); test: hCB1 SPA GTPγ35S Sf9 membranes, antagonist; assay type: biochemical; set-up: purchased Applied Cell Sciences, Gaithersburg, Md; PerkinElmer Life Sciences, Boston, Mass; host or cells: Sf9 insect cells (recombinant expression), membranes; settings: hCB1 SPA GTPγ35S Sf9 Mem 22.7 ug protein/well Antagonist; read-out: Inverse Agonist Potency CB1 (Kb)
T2 sequence (P21554 whole entry): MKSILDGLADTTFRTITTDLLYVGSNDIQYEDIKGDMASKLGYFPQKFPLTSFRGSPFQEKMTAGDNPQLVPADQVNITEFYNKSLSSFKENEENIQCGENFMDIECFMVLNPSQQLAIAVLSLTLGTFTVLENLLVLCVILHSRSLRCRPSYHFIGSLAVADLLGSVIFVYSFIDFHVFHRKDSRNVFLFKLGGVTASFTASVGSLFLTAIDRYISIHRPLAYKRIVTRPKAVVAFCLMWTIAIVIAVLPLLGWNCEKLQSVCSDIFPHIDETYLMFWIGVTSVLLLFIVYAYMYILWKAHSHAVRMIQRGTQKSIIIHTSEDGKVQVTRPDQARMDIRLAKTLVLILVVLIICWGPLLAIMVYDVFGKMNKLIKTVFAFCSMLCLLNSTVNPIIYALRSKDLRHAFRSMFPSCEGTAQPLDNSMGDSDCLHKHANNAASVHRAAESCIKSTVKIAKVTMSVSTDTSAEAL
Procedure: as §1
as §2, with “Briefly incubate, CHO or Sf9 cell membranes expressing CB1 or CB2, respectively (Applied Cell Sciences, Gaithersburg, Md.; PerkinElmer Life Sciences, Boston, Mass.); prepare as previously described (DeLapp et al., 1999), exemplified compounds and 500 μM GTP-γ-^35S (PerkinElmer Life Sciences, Boston, Mass.) for 30 minutes (incubate all at room temperature) in GTP-binding assay buffer (20 mM Hepes, 100 mM NaCl, 5 mM MgCl2, pH 7.4).” left out
as §3

Bioavailability rat = assay type: in vivo
Source text: (§4) Methods for accessing bioavailabilty are well appreciated in the art. One such reference is Medicinal Research Reviews Vol 21 No. 5 382-396 (2001).

Bioavailability dog = assay type: in vivo
Source text: as §4

Rat CB1 = target: T3, Rat CB1 (Rattus norvegicus, UniProt P20272); test: Antibody-capture SPA GTP-γ-35S binding, antagonist/inverse agonist, CHO cell membranes; assay type: biochemical
T3 construct: purchased Applied Cell Sciences, Gaithersburg, Md; PerkinElmer Life Sciences, Boston, Mass; host or cells: CHO cells (recombinant expression), membranes
T3 sequence (P20272 whole entry): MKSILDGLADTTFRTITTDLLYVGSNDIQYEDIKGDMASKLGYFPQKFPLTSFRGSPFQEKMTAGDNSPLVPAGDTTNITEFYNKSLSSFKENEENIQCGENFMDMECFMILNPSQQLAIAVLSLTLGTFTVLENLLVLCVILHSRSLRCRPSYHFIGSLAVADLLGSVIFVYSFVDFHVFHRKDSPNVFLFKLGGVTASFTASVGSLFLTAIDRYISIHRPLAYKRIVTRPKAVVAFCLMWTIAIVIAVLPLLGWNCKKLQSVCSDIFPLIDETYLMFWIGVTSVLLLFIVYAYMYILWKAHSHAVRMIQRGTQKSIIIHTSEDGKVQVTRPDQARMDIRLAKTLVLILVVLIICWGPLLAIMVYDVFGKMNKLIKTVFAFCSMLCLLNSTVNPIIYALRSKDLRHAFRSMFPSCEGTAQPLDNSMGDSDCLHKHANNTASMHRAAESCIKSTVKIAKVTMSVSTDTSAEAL
Procedure: as §1, §2, §3

hCB1 [3] = target: T2, hCB1; test: as above; assay type: biochemical
Procedure: as §1, §2, §3

Human CB2 [4] = target: T1, Human CB2; test: Agonist GTP-binding, Sf9 membranes; assay type: biochemical
Procedure: as §1
Test exemplified compounds. Measure GTP-γ^35S binding in a 96 well format using a modified antibody capture technique previously described (DeLapp et al. 1999). Briefly incubate, CHO or Sf9 cell membranes expressing CB1 or CB2, respectively (Applied Cell Sciences, Gaithersburg, Md.; PerkinElmer Life Sciences, Boston, Mass.); prepare as previously described (DeLapp et al., 1999), exemplified compounds and […] GTP-γ-^35S (PerkinElmer Life Sciences, Boston, Mass.) for 30 minutes (incubate all at room temperature) in GTP-binding assay buffer (20 mM Hepes, 100 mM NaCl, 5 mM MgCl2, pH 7.4). Perform antagonist dose responses in the presence of a saturating dose of full agonist (methanandamide). […]
To analyze data, first subtract background from all wells. […] Determine Kb values using a modification of the Cheng-Prusoff relationship: Kb=IC50/(1+[agonist]/EC50) where IC50 is determined from a four parameter fit of displacement curves, [agonist]=EC50 of full agonist, and EC50 is determined from a four parameter fit of a full agonist concentration response curve (Cheng and Prusoff 1973). […]

NIH-Swiss mice = test: Forced swim test (FST); assay type: in vivo; settings: minimum effective dose, decrease in immobility time
Procedure: Receive NIH male Swiss mice (Harlan Sprague-Dawley, weigh 20-25 g) 7-10 days prior to testing. House 12 mice/cage. Test animals that weigh 25-30 g. On the day of test, bring animals to the testing room at least 1 hr prior to dosing, when doing starts, 6-8 min. intervals between each dosing with mouse receiving either vehicle or exemplified compounds by p.o., and then put it into a clean cage afterwards (4 mice/cage). Depending on pretreatment time, start the test accordingly.
Mice FST: Place NIH-Swiss mice in clear plastic cylinders (diameter: 10 cm; height: 25 cm) filled to 6 cm with 22-25° C. water for six min. Record the duration of immobility during the last 4 min. of the six-minute trial. A mouse is regarded as immobile when floating motionless or making only those movements necessary to keep its head above the water.
Copy the data-immobility (second) into JMP data sheet, and analyze by ANOVA-Dunnett's test. Record the minimum effective dose (MED) as the lowest dose of compound at which statistically significant decrease in immobility time is observed versus a vehicle control.

hCB1 [5] = target: T2, hCB1; test: Agonist GTP-binding, Sf9 membranes; assay type: biochemical; set-up: purchased Applied Cell Sciences, Gaithersburg, Md; PerkinElmer Life Sciences, Boston, Mass; host or cells: Sf9 insect cells (recombinant expression), membranes
Procedure: as §1
as §2, with “Briefly incubate, CHO or Sf9 cell membranes expressing CB1 or CB2, respectively (Applied Cell Sciences, Gaithersburg, Md.; PerkinElmer Life Sciences, Boston, Mass.); prepare as previously described (DeLapp et al., 1999), exemplified compounds and 500 μM GTP-γ-^35S (PerkinElmer Life Sciences, Boston, Mass.) for 30 minutes (incubate all at room temperature) in GTP-binding assay buffer (20 mM Hepes, 100 mM NaCl, 5 mM MgCl2, pH 7.4).” left out
as §3

[6] = Antibody-capture SPA GTP-γ-35S binding, human CB2, read-out: Inverse Agonist Potency CB2 (Kb)

| SMILES | Kb (Human CB2 [1]; [6]) | Kb (hCB1 [2]) | Bioavail. Rat (Bioavailability rat) | Bioavail. Dog (Bioavailability dog) | further results |
| --- | --- | --- | --- | --- | --- |
| CC(F)(F)c1cccc([C@H]2C[C@@H](NC(C)(C)c3ccc(C(F)(F)F)nc3)C(=O)N2c2ccc(OC(F)(F)F)cc2)c1 [Example 32B, (3R,5R)-3-[1-Methyl-1-(6-trifluoromethyl-pyridin-3-yl)-ethyl-amino]-5-[3-(1,1-difluoro-ethyl)-phenyl]-1-(4-trifluoromethoxy-phenyl)-pyrrolidin-2-one] | > 4000 nM | 2.38 nM | – | – | – |
| CC(C)(N[C@H]1C[C@H](c2ccccc2)N(c2ccc(OC(F)(F)F)cc2)C1=O)c1ccc(C(F)(F)F)nc1 [Example 44, (3S,5R)-3-[1-Methyl-1-(6-trifluoromethyl-pyridin-3-yl)-ethylamino]-5-phenyl-1-(4-trifluoromethoxy-phenyl)-pyrrolidin-2-one] | 4030 nM | 72.7 nM | – | – | – |
| CC(C)(N[C@H]1C[C@@H](c2ccccc2)N(c2ccc(OC(F)(F)F)cc2)C1=O)c1ccc(C(F)(F)F)nc1 [Example 4, (3S,5S)-3-[1-Methyl-1-(6-trifluoromethyl-pyridin-3-yl)-ethylamino]-5-phenyl-1-(4-trifluoromethoxy-phenyl)-pyrrolidin-2-one tosylate] | > 7230 nM | 107 nM | – | – | – |
| CC(C)(N[C@@H]1C[C@H](c2cccc(OC(F)(F)C(F)F)c2)N(c2ccc(Cl)cc2)C1=O)c1ccc(C(F)(F)F)nc1 [Example 41, (3R,5R)-3-[1-Methyl-1-(6-trifluoromethyl-pyridin-3-yl)-ethylamino]-5-[3-(1,1,2,2-tetrafluoro-ethoxy)-phenyl]-1-(4-chloro-phenyl)-pyrrolidin-2-one] | > 14200 nM | 0.91 nM | 36% | 47% | – |
| CC(C)(N[C@@H]1C[C@H](c2cccc(OC(F)(F)C(F)F)c2)N(c2ccc(C(F)(F)F)cc2)C1=O)c1ccc(C(F)(F)F)nc1 [Example 40, (3R,5R)-3-[1-Methyl-1-(6-trifluoromethyl-pyridin-3-yl)-ethylamino]-5-[3-(1,1,2,2-tetrafluoro-ethoxy)-phenyl]-1-(4-trifluoromethyl-phenyl)-pyrrolidin-2-one] | > 6900 nM | 0.71 nM | 77% | 38% | – |
| Cc1cccc([C@H]2C[C@@H](NC(C)(C)c3ccc(C(F)(F)F)nc3)C(=O)N2c2ccc(OC(F)(F)F)cc2)c1 [Example 1, (3R,5R)-3-[1-Methyl-1-(6-trifluoromethyl-pyridin-3-yl)-ethylamino]-5-(m-tolyl)-1-(4-trifluoromethoxy-phenyl)-pyrrolidin-2-one tosylate] | 390 nM | 0.91 nM | 7% | 36% | – |
| CC(C)(N[C@@H]1C[C@H](c2ccccc2)N(c2ccc(OC(F)(F)F)cc2)C1=O)c1ccc(C(F)(F)F)nc1.Cc1ccc(S(=O)(=O)O)cc1 [Example 49, (3R,5R)-3-[1-Methyl-1-(6-trifluoromethyl-pyridin-3-yl)-ethylamino]-5-phenyl-1-(4-trifluoromethoxy-phenyl)-pyrrolidin-2-one tosylate] | – | 2.6 nM | 36% | 40% | Kb (Rat CB1; Rat CB1 (CHO cells), GTP binding, mean ± SEM, read-out: Inverse Agonist Potency [Kb (nM)]): 0.264 ± 0.02 nM; CB1 antagonism/inverse agonism, in words (Rat CB1; rat CB1 receptors): potent; Kb (hCB1 [3]; Human CB1 (CHO cells), GTP binding, mean ± SEM, read-out: Inverse Agonist Potency [Kb (nM)]): 0.226 ± 0.01 nM; CB1 antagonism/inverse agonism, in words (hCB1 [3]; human CB1 receptors): potent; Kb (Human CB2 [1]; Human CB2 (Sf9 cells), GTP binding, mean ± SEM, read-out: Inverse Agonist Potency [Kb (nM)]): 587 ± 191 nM; CB2 antagonism, in words (Human CB2 [1]; human CB2 receptors): low antagonism; Agonist Efficacy % (Human CB2 [4]; normalized to full agonist methanandamide): 0%; EC50 (Human CB2 [4]; read-out: Agonist Potency EC50): > 10000 nM; Forced Swim Test (MED, mg/kg, po) (NIH-Swiss mice): 3 mg/kg; Agonist Efficacy % (hCB1 [5]; Human CB1, Sf9 membranes, normalized to full agonist methanandamide): −38.3 ± 1.0%; EC50 (hCB1 [5]; Human CB1, Sf9 membranes, read-out: Agonist Potency EC50): 0.81 ± 0.19 nM; agonist efficacy at the human CB1 receptor (inverse agonism), in words (hCB1 [5]; human CB1, basal constitutive activity): less than zero |
